Measurements taken from patent US8846653B2, “Delta-tocotrienol treatment and prevention of pancreatic cancer” (University of South Florida, priority 2006, dated 2014).

Key:
Type in all cases: cell-based, human
[1] = tested on: SW1990 pancreatic cancer cells; assay: MTS assay of SW1990 cultures, single 50 μM dose; conditions: SW1990, 50 μM
Method in brief: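 SW1990 cells were grown in DMEM with 10% FBS at 37 °C, 5% CO2. They were given one 50 μM dose of a tocotrienol, tocopherol, tocopherol succinate, geranylgeraniol or succinic acid, in an olive-oil-extract vehicle. MTS viability was read at 24, 48 or 72 h and compared with vehicle-only cultures.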

BXPC3 cells = assay: MTT assay of BXPC3 cultures, single 50 μM dose; parameters: MTT assay result, run 1 / MTT assay result, run 2 / MTT assay result, run 3 / MTT assay result, run 4 / MTT assay result, run 5 / MTT assay result, run 6 / MTT assay result, run 7 / MTT assay result, av (average) / MTT assay result, av-blank / MTT assay result, av: unit not given here; conditions: BXPC3, 50 μM; for MTT assay result, av-blank: average minus blank
Method in brief: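 BXPC3 cells in 10% FBS medium at 37° C, 5% CO2, given a single 50 μM dose of tocotrienols, tocopherols, tocopherol succinate, geranylgeraniol, succinic acid or vehicle, alongside untreated control. Viability read by MTT at 48 or 120 hours.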

MiaPaCa-2 cells = assay: MTS assay of MiaPaCa2 cultures, single 50 μM dose; conditions: MiaPaCa2, 50 μM
Method in brief: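 MiaPaCa-2 pancreatic cancer cells were grown in complete DMEM with 10% fetal bovine serum, 1% penicillin-streptomycin and 1% L-glutamine, kept at 37° C. in a humidified 5% CO2 incubator. They received a single 50 μM dose of test agent or vehicle alongside an untreated control culture, and viability was assessed by MTS assay.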

alpha tocotrienol [T3 alpha] was tested, and the “rel amnt (relative value set to the control)” value ([1]; 24 hours) was 121, the “MTS assay result, run 1” value ([1]; 24 hours) was 0.168 and the “MTS assay result, run 2” value ([1]; 24 hours) was 0.183. The “MTS assay result, run 3” value ([1]; 24 hours) was 0.175, the “MTS assay result, run 4” value ([1]; 24 hours) was 0.148 and the “MTS assay result, run 5” value ([1]; 24 hours) was 0.195. The “MTS assay result, run 6” value ([1]; 24 hours) was 0.176, the “MTS assay result, run 7” value ([1]; 24 hours) was 0.206 and the “MTS assay result, run 8” value ([1]; 24 hours) was 0.172. For the same substance, the “MTS assay result, run 9” value ([1]; 24 hours) was 0.178, the “rel amnt (relative value set to the control)” value ([1]; 48 hours) was 116 and the “MTS assay result, run 1” value ([1]; 48 hours) was 0.168. For the same substance, the “MTS assay result, run 2” value ([1]; 48 hours) was 0.162, the “MTS assay result, run 3” value ([1]; 48 hours) was 0.16 and the “MTS assay result, run 4” value ([1]; 48 hours) was 0.146. The “MTS assay result, run 5” value ([1]; 48 hours) was 0.175, the “MTS assay result, run 6” value ([1]; 48 hours) was 0.205 and the “MTS assay result, run 7” value ([1]; 48 hours) was 0.2. For the same substance, the “MTS assay result, run 8” value ([1]; 48 hours) was 0.187, the “MTS assay result, run 9” value ([1]; 48 hours) was 0.175 and the “rel amnt (relative value set to the control)” value ([1]; 72 hours) was 61. The “MTS assay result, run 1” value ([1]; 72 hours) was 0.279, the “MTS assay result, run 2” value ([1]; 72 hours) was 0.282 and the “MTS assay result, run 3” value ([1]; 72 hours) was 0.29. The “MTS assay result, run 4” value ([1]; 72 hours) was 0.238, the “MTS assay result, run 5” value ([1]; 72 hours) was 0.302 and the “MTS assay result, run 6” value ([1]; 72 hours) was 0.279. The “MTS assay result, run 7” value ([1]; 72 hours) was 0.25, the “MTS assay result, run 8” value ([1]; 72 hours) was 0.254 and the “MTS assay result, run 9” value ([1]; 72 hours) was 0.273. The “rel amt (relative value set to the control)” value (BXPC3 cells; 48 hours) was 104, the “MTT assay result, av-blank” value (BXPC3 cells; 48 hours) was 0.236 and the “MTT assay result, av (average)” value (BXPC3 cells; 48 hours, average of 7 runs) was 0.285. For the same substance, the “MTT assay result, run 1” value (BXPC3 cells; 48 hours) was 0.279, the “MTT assay result, run 2” value (BXPC3 cells; 48 hours) was 0.275 and the “MTT assay result, run 3” value (BXPC3 cells; 48 hours) was 0.295. For the same substance, the “MTT assay result, run 4” value (BXPC3 cells; 48 hours) was 0.301, the “MTT assay result, run 5” value (BXPC3 cells; 48 hours) was 0.3 and the “MTT assay result, run 6” value (BXPC3 cells; 48 hours) was 0.273. For the same substance, the “MTT assay result, run 7” value (BXPC3 cells; 48 hours) was 0.275, the “rel amt (relative value set to the control)” value (BXPC3 cells; 120 hours (5 days)) was 97 and the “MTT assay result, av-blank” value (BXPC3 cells; 120 hours (5 days)) was 0.558. For the same substance, the “MTT assay result, av” value (BXPC3 cells; 120 hours (5 days), average of 7 runs) was 0.613, the “MTT assay result, run 1” value (BXPC3 cells; 120 hours (5 days)) was 0.584 and the “MTT assay result, run 2” value (BXPC3 cells; 120 hours (5 days)) was 0.637. The “MTT assay result, run 3” value (BXPC3 cells; 120 hours (5 days)) was 0.594, the “MTT assay result, run 4” value (BXPC3 cells; 120 hours (5 days)) was 0.63 and the “MTT assay result, run 5” value (BXPC3 cells; 120 hours (5 days)) was 0.62. For the same substance, the “MTT assay result, run 6” value (BXPC3 cells; 120 hours (5 days)) was 0.61, the “MTT assay result, run 7” value (BXPC3 cells; 120 hours (5 days)) was 0.618 and the “rel amt (relative value set to the control)” value (MiaPaCa-2 cells; 24 hours) was 116. For the same substance, the “MTS assay result, run 1” value (MiaPaCa-2 cells; 24 hours) was 0.274, the “MTS assay result, run 2” value (MiaPaCa-2 cells; 24 hours) was 0.296 and the “MTS assay result, run 3” value (MiaPaCa-2 cells; 24 hours) was 0.293. For the same substance, the “MTS assay result, run 4” value (MiaPaCa-2 cells; 24 hours) was 0.216, the “MTS assay result, run 5” value (MiaPaCa-2 cells; 24 hours) was 0.245 and the “MTS assay result, run 6” value (MiaPaCa-2 cells; 24 hours) was 0.258. For the same substance, the “MTS assay result, run 7” value (MiaPaCa-2 cells; 24 hours) was 0.243, the “MTS assay result, run 8” value (MiaPaCa-2 cells; 24 hours) was 0.239 and the “MTS assay result, run 9” value (MiaPaCa-2 cells; 24 hours) was 0.258. The “rel amt (relative value set to the control)” value (MiaPaCa-2 cells; 48 hours) was 93, the “MTS assay result, run 1” value (MiaPaCa-2 cells; 48 hours) was 0.336 and the “MTS assay result, run 2” value (MiaPaCa-2 cells; 48 hours) was 0.325. The “MTS assay result, run 3” value (MiaPaCa-2 cells; 48 hours) was 0.343, the “MTS assay result, run 4” value (MiaPaCa-2 cells; 48 hours) was 0.327 and the “MTS assay result, run 5” value (MiaPaCa-2 cells; 48 hours) was 0.39. For the same substance, the “MTS assay result, run 6” value (MiaPaCa-2 cells; 48 hours) was 0.376, the “MTS assay result, run 7” value (MiaPaCa-2 cells; 48 hours) was 0.322 and the “MTS assay result, run 8” value (MiaPaCa-2 cells; 48 hours) was 0.286. For the same substance, the “MTS assay result, run 9” value (MiaPaCa-2 cells; 48 hours) was 0.338, the “rel amt (relative value set to the control)” value (MiaPaCa-2 cells; 72 hours) was 61 and the “MTS assay result, run 1” value (MiaPaCa-2 cells; 72 hours) was 0.279. For the same substance, the “MTS assay result, run 2” value (MiaPaCa-2 cells; 72 hours) was 0.282, the “MTS assay result, run 3” value (MiaPaCa-2 cells; 72 hours) was 0.294 and the “MTS assay result, run 4” value (MiaPaCa-2 cells; 72 hours) was 0.238. The “MTS assay result, run 5” value (MiaPaCa-2 cells; 72 hours) was 0.302, the “MTS assay result, run 6” value (MiaPaCa-2 cells; 72 hours) was 0.279 and the “MTS assay result, run 7” value (MiaPaCa-2 cells; 72 hours) was 0.254. The “MTS assay result, run 8” value (MiaPaCa-2 cells; 72 hours) was 0.254 and the “MTS assay result, run 9” value (MiaPaCa-2 cells; 72 hours) was 0.273.
